Data taken from paper PMC10857906, “PROTAC-mediated NR4A1 degradation as a novel strategy for cancer immunotherapy” (The Journal of Experimental Medicine, 2024).

Key:
NR4A3 = target: T1, NR4A3 (Homo sapiens, UniProt Q92570); test: NR4A3 protein level after treatment (immunoblotting); type: cell-based
T1 construct: endogenous in cells
Description: Samples were lysed using radioimmunoprecipitation assay buffer (RIPA) lysis buffer (150 mM NaCl, 5 mM EDTA, 50 mM Tris pH 8.0, 0.5% sodium deoxycholate, 1% NP-40, 0.1% SDS) supplemented with 1 mM dithiothreitol and protease inhibitors. The lysates were separated by SDS-PAGE and analyzed using standard western blotting procedures ([Khan et al., 2019]). Antibodies: human NR4A1 (ab153914, 1:1,000; Abcam), mouse NR4A1 (14-5965-82, 1:1,000; Invitrogen), NR4A2 (AV38753, 1:1,000; Sigma-Aldrich), NR4A3 (TA804893, 1: 1,000; Thermo Fisher Scientific), VHL (68547, 1:1,000; Cell Signaling), β-actin (13E5, 1:5,000; Cell Signaling), β-tubulin (9F3, 1: 5,000; Cell Signaling), and GAPDH (D16H11, 1: 5,000; Cell Signaling) were employed for protein detection.

NR4A1 = target: T2, NR4A1 (Homo sapiens, UniProt P22736); test: NR4A1 degradation in A375 human melanoma cells (immunoblotting); type: cell-based; settings: 16 h treatment, read-out: 50% degradation concentration (DC50) of NR4A1
T2 construct: NR-V04 effectively promoted the degradation of NR4A1 in two human melanoma cell lines within 16 h; endogenous in cells; host or cells: CHL-1, A375, WM164, M229 human melanoma cells
Description: Human melanoma cell lines: A375 and CHL-1 (gifts from Dr. D. Zhou, the University of Texas Health Science Center, San Antonio, TX, USA) were cultured in Dulbecco’s Modified Eagles’ Medium (DMEM, D5796; Sigma-Aldrich), WM164 and M229 (gifts from Dr. K.S.M. Smalley’s lab) were cultured in RPMI-1640 (R8758; Sigma-Aldrich). Mouse melanoma cell lines: B16F10 (CRL-6475, ATCC) was cultured in DMEM, SW1 and SM1 (gift from Dr. K.S.M. Smalley, Moffitt Cancer Center, Tampa, FL, USA) were cultured in RPMI. Human epithelial kidney cell lines: HEK293T (293T, CRL-3216; ATCC) and Vhl-KO-293T (gift from Dr. D. Zhou, the University of Texas Health Science Center, San Antonio, TX, USA) were cultured in DMEM. Mouse colon cancer cell lines: MC38 (ENH204-FP; Kerafast Inc.) was cultured in DMEM supplemented with 1 mM glutamine, […] non-essential amino acids (11140050; Thermo Fisher Scientific), 1 mM sodium pyruvate (11360070; Thermo Fisher Scientific), and 10 mM HEPES (15630080; Thermo Fisher Scientific). […]
Samples were lysed using radioimmunoprecipitation assay buffer (RIPA) lysis buffer (150 mM NaCl, 5 mM EDTA, 50 mM Tris pH 8.0, 0.5% sodium deoxycholate, 1% NP-40, 0.1% SDS) supplemented with 1 mM dithiothreitol and protease inhibitors. The lysates were separated by SDS-PAGE and analyzed using standard western blotting procedures ([Khan et al., 2019]). […]

[1] = system: immune cells in the TME, spleen and blood; test: Immune profile by flow cytometry in B16F10 tumor-bearing mice; type: in vivo, mouse
Description: For syngeneic tumor models, 5 × 10^5 cells MC38, Yumm1.7, and Yummer1.7, 1 × 10^5 cells of B16F10 were resuspended in PBS and implanted into 7–9-wk-old mice subcutaneously. For the tumor inhibition experiment, mice were treated with 1.8 mg/kg NR-V04 or 0.75 mg/kg celastrol by i.p. injection twice weekly. For the immune profile experiment, once tumors reached 0.5 cm in diameter, mice were treated with 1.8 mg/kg NR-V04 by i.p. injection twice weekly. For the toxicity experiment, male and female non-tumor-bearing mice were treated with 2 mg/kg NR-V04 for two doses in the first week and 5 mg/kg for another two doses in the second week. Blood samples were taken from the submandibular (facial) vein before each treatment and 42 days later for hematological analysis, and body weight was measured twice per week up to day 42. Mice were euthanized in accordance with the IACUC protocol once the largest tumors reached 2 cm in diameter, and tissues were collected for further analysis.
Mouse tumors were excised and ∼200 mg of tumor tissue was enzymatically and mechanically digested using the mouse Tumor Dissociation Kit (Miltenyi Biotec) to obtain a single-cell suspension. Human tumor samples and sections were enzymatically and mechanically digested using the human Tumor Dissociation Kit (Miltenyi Biotec) to obtain single-cell suspension. Red blood cells were lysed using ACK lysis buffer and mononuclear cells were isolated by density gradient using SepMate Tubes (StemCell Technologies) and Lymphoprep density gradient media (StemCell Technologies). Mouse cells were then washed and incubated with combinations of the following antibodies: anti-mouse CD62L-BV785 (clone MEL-14), anti-mouse MHCII I-A/I-E-BB515 (Clone 2G9, 1:400; BD Biosciences), anti-mouse CD11B-PEdazzle 594 (clone M1/70, 1:200), anti-mouse CD45-AF532 (clone 30F.11), anti-mouse CD3-APC/Cy7 (clone 17A2), anti-mouse CD8-BV510 (clone 53-6.7), anti-mouse CD4-BV605 (clone GK1.5), anti-mouse NK1.1-AF700 (clone PK136), anti-mouse/human CD45R/B220-BV 570 (clone RA3-6B2), anti-mouse CD138-BV711 (clone 281-2), […], anti-mouse IgD-PE-Cy7 (clone 11-26c.2a), anti-mouse Ly6G-FITC (clone IA8), anti-mouse Ly6C-BV711 (clone HK1.4), anti-mouse CD38-PerCP/Cy 5.5 (clone 90) anti-mouse IgM-AF488 (clone RMM-1), anti-mouse CD25-PE-Cy5 (clone PC61) plus zombie red (cell viability; Thermo Fisher Scientific), and mouse FcR blocker (anti-mouse CD16/CD32, clone 2.4G2; BD Biosciences). After surface staining, cells were fixed and permeabilized using the FOXP3/Transcription Factor Staining Buffer Set (eBioscience). Cells were stained with a combination of the following antibodies: anti-mouse FOXP3-efluor 450 (clone FJK-16S, 1:50; eBioscience), anti-mouse Granzyme B-BV421 (clone GB11), and anti-mouse NR4A1-PE (clone 12.14; eBioscience). Human cells were stained with a combination of the following antibodies: anti-human CD45-BV510 (clone H130), anti-human CD3-AF700 (clone HIT5a), anti-human CD4-BV421 (clone OKT4), anti-human CD8-BV711 (clone RPA-T8), anti-human CD127-BV605 (clone A019DS), anti-human CD25-PE-Cy7 (clone MA251) plus FVD-eFluor-780 (eBioscience), and human FcR blocking reagent (StemCell Technologies). Cells were washed then fixed and permeabilized using the eBioscience FOXP3/Transcription Factor Staining Buffer Set. […] Flow cytometry was performed on a three laser Cytek Aurora Cytometer (Cytek Biosciences) and analyzed using FlowJo software (BD Biosciences). […]

T1 sequence (Q92570 whole entry): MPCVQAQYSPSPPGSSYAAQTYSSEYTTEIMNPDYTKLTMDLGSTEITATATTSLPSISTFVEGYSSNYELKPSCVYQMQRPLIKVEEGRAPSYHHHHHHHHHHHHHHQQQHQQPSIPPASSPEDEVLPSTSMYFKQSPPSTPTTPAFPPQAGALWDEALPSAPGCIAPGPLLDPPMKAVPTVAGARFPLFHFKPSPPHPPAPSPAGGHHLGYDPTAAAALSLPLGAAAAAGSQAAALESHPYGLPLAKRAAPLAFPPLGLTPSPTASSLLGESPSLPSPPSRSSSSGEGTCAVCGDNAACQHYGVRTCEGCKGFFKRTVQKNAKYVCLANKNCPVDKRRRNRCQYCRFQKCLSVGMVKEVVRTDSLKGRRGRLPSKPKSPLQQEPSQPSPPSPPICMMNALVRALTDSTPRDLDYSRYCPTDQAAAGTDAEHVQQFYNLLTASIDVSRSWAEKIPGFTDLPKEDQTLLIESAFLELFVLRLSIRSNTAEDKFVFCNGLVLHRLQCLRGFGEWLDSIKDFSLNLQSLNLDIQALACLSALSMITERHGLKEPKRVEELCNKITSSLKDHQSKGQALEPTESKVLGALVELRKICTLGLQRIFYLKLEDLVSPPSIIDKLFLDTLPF
T2 sequence (P22736 whole entry): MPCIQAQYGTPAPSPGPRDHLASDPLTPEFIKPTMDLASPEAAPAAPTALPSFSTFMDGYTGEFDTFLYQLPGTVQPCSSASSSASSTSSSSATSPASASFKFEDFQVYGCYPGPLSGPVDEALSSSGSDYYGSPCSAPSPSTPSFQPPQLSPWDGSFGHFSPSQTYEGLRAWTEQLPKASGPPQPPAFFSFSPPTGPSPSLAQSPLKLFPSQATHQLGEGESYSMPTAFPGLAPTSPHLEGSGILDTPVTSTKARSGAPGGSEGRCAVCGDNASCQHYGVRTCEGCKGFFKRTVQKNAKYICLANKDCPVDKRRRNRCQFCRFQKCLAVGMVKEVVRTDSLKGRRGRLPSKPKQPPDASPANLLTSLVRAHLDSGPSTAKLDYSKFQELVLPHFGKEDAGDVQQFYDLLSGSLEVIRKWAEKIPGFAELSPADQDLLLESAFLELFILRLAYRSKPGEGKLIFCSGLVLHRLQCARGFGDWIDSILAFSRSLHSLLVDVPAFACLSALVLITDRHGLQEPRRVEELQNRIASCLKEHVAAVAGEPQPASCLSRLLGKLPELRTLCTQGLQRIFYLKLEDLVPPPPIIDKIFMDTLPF

## CC1=C(O)C(=O)C=C2C1=CC=C1[C@@]2(C)CC[C@@]2(C)[C@@H]3C[C@](C)(C(=O)NCCOCCOCCOCCOCC(=O)N[C@H](C(=O)N4C[C@H](O)C[C@H]4C(=O)N[C@@H](C)c4ccc(-c5scnc5C)cc4)C(C)(C)C)CC[C@]3(C)CC[C@]12C [NR-V04]
NR4A3
  NR4A3 protein level (selectivity in the NR4A family): sparing NR4A2 and NR4A3
NR4A1
  DC50: 519 nM
[1]; B16F10 model, 2 doses of 1.8 mg/kg i.p.
  B cells in the spleen and blood: no significant change
[1]; B16F10 tumors
  CD8^+ Texh cells in vivo: did not observe a significant decrease in CD8^+ Texh cells
[1]; B16F10 tumors, 2 doses of 1.8 mg/kg i.p. on day 1 and day 4, collected day 7, vehicle 14.7%
  TI-B cells (B220^+ cells): 30.1%
[1]; spleen and tumors, B16F10 model, 2 doses of 1.8 mg/kg i.p.
  effector memory CD8 T cells (CD44^+CD62L^− Tem): increase in effector memory CD8 T cells
[1]; tumors and blood, B16F10 model, 2 doses of 1.8 mg/kg i.p.
  monocytic myeloid-derived suppressor cells (m-MDSC, CD11B^+Ly6C^+): decrease in monocytic myeloid-derived suppressor cells
